We go through 6 molecules from patent US8778876B2, “Small-molecule inhibitors of Dengue and West Nile virus proteases” (The Board of Regents of the University of Texas System, priority 2011, dated 2014).

Data set [1] concerns the target T1, DEN2V NS2B-NS3pro (Dengue virus type 2, UniProt Q91H74). Put plainly: Steady-state kinetics of inhibitors of DEN2V NS2B-NS3pro (Boc-GRR-AMC substrate, Dynafit). Type of data set: biochemical, Dengue 2 virus.
A further data set concerns cells. Particulars: Yip et al., 2006; cited from earlier work.
Another data set addresses WNV NS2B-NS3pro (West Nile virus, UniProt P06935). Put plainly: Steady-state kinetics of inhibitors of WNV NS2B-NS3pro. The data set is classed as biochemical.
For data set [2], the target named is T2, Bovine pancreatic trypsin (Bos taurus, UniProt P00760).
T2 construct: purchased Sigma Aldrich; host or cells: bovine pancreas
T2 sequence (P00760 24-246): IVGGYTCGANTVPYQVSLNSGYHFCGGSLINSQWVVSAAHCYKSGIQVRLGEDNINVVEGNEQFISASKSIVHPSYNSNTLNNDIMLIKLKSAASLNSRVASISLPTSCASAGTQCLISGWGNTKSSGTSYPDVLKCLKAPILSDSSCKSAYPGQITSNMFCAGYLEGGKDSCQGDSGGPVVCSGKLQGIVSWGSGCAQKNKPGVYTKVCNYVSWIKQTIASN
The data set is described as follows: biochemical. Type of data set: biochemical.

The next data set is described as follows: physchem. The following applies: pH 9, aqueous with cosolvent or surfactant or cyclodextrin, kinetic from dmso stock.
For data set [3], the target named is T1, DEN2V NS2B-NS3pro. Put plainly: Preliminary DEN2V NS2B-NS3pro inhibition assay. The following applies: 100 nM protease, 100 μM Boc-GRR-AMC, 30 min at 25° C.; aprotinin at 100 μM. Type of data set: biochemical, Dengue 2 virus.
In data set [4] the target is T2, Bovine pancreatic trypsin. The data set is described as follows: Trypsin inhibition assay with chromogenic BAPNA substrate. Type of data set: biochemical. Particulars: analog at 100 μM. On the procedure: Bovine pancreatic trypsin (Sigma Aldrich, St. Louis) and N-α-Benzoyl-DL-arginine 4-nitroanilide hydrochloride (BAPNA) substrate (Sigma Aldrich, St. Louis) were used for trypsin inhibition assays. Trypsin stock solutions were prepared in sodium phosphate buffer (67 mM [pH 7.6]). Trypsin (60 μM) was incubated with chromogenic BAPNA (500 μM) and release of the para-nitroanilide product monitored using a DU640 spectrophotometer (Beckman Coulter, USA) to measure absorption at 415 nm. The slope of the progress curve was determined using linear regression and used as a baseline for comparison with inhibitor reactions.

For data set [5] the following is noted: pH 9.
A further data set deals with DENV; WNV protease. The data set is classed as biochemical, Dengue virus; West Nile virus.
[6] abbreviates: Ki1 (from biochemical protease inihibition experiments) West Nile virus NS2B-NS.

“Also recorded” adds a separate entry of the source. Counter-ions that a name gives are not always drawn. Like-named read-outs stand apart in the source and are kept apart here.

Usually Ki stands for a measure of affinity in units of concentration, obtained from inhibition or displacement. High values mean a looser hold on the target, low ones a stronger hold on the target. A word on the solubility: it is how much of the substance goes into solution per volume.

Sequence of WNV NS2B-NS3pro (P06935 1502-1679 limits assumed): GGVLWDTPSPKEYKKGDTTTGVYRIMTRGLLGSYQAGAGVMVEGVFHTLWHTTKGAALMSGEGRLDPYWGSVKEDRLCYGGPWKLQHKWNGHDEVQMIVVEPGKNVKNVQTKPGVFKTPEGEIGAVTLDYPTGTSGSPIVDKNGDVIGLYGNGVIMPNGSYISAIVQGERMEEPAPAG
Sequence of WNV NS2B-NS3pro (P06935 1424-1463 partner limits assumed): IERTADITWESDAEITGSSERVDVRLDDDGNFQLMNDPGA
T1 sequence (Q91H74 entry or part of it, added parts left off): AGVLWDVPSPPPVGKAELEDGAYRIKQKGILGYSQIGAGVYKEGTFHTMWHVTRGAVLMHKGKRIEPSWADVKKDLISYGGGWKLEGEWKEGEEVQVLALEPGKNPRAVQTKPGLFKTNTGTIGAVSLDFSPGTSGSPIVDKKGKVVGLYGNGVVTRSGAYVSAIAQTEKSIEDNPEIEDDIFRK
T1 sequence (Q91H74 entry or part of it partner, added parts left off): as the sequence (Q91H74 entry or part of it, added parts left off) above

With `CCCCC(CC)CNC(=N)NC(=N)NCCCCCCNC(=N)NC(=N)NCC(CC)CCCC` (stereo not drawn) [MS28, Alexidine hydrochloride, reference compound], the inhibition constant Ki at DEN2V NS2B-NS3pro [1] (Ki1, Table 1, DEN2V NS2B-NS3pro) worked out at 41 ± 3 µM; at DEN2V NS2B-NS3pro [1] (Ki2, Table 1, DEN2V NS2B-NS3pro), 84 ± 16 µM; at WNV NS2B-NS3pro (Ki1, Table 2, WNV NS2B-NS3pro), 12 µM; at WNV NS2B-NS3pro (Ki2, Table 2, WNV NS2B-NS3pro), 28 ± 5 µM. Also, the Mechanism entry on DEN2V NS2B-NS3pro [1] (Table 1, DEN2V NS2B-NS3pro, HTS-identified hits) is recorded as “Mixed”; on WNV NS2B-NS3pro (Table 2, WNV NS2B-NS3pro), “Mixed”. Also, the “ED50 (cell viability reduced by 50%)” value with cells is listed as “low micromolar”.

With `O=C1c2c(O)cccc2Cc2cccc(O)c21` [Compound 6A45], the Ki on WNV NS2B-NS3pro (setting [6]) was 2 µM; in [2] (Ki1 trypsin) it was 0.6 ± 0.07 µM. In data set [2], the “Mechanism (trypsin inhibition)” value was “competitive trypsin inhibitors; also recorded: inhibited both the DEN2V NS2B-NS3 protease and trypsin”. The molecule further displayed a solubility in “physchem” greater than 10 µM. Moreover, the “Inhibition of DEN2V NS2B-NS3pro in the preliminary inhibition assay” value on DEN2V NS2B-NS3pro [3] is listed as “significant inhibition”.

On to `O=C1c2c(O)ccc([N+](=O)[O-])c2C(=O)c2c([N+](=O)[O-])ccc(O)c21` [ARDP0006, reference compound], for which the Ki at DEN2V NS2B-NS3pro [1] (Ki1, Table 4, ARDP0006 analogs, DEN2V NS2B-NS3pro) was 432 ± 46 µM; in [2] (Ki2 trypsin), 13 µM. Besides, the Mechanism entry at DEN2V NS2B-NS3pro [1] (Table 4, ARDP0006 analogs, DEN2V NS2B-NS3pro) was “competitive inhibition model”. Moreover, the “Inhibition of trypsin cleavage of the chromogenic substrate” value in [4] is “not the chromogenic substrate”. The “Mechanism (trypsin inhibition)” value in data set [2] is given as “uncompetitive trypsin inhibitor”. Also, the solubility in the data set “physchem” was greater than 10 µM.

Consider `COc1cc(O)c2c(=O)c3c(O)ccc(OCl)c3oc2c1` [Compound 6A63], for which the “Solubility in the kinetic reaction buffer” value in data set [5] is “not soluble”. Besides, in the data set “physchem”, the solubility is less than 10 µM.

As to `O=[N+]([O-])c1ccc(N=Nc2ccc(O)c3ccccc23)c([N+](=O)[O-])c1` [Compound 6A49], the “Protease inhibited in Knock-down” value in the data set on DENV; WNV protease is listed as “DENV; WNV”. The Ki at WNV NS2B-NS3pro (setting [6]) and at WNV NS2B-NS3pro (WNpro Ki1) was 34 µM each time. In data set [2], the “Mechanism (trypsin inhibition)” value was “did not inhibit trypsin; also recorded: No inhibition”. In “physchem”, this molecule had a solubility greater than 10 µM. In addition, the “Inhibition of DEN2V NS2B-NS3pro in the preliminary inhibition assay” value at DEN2V NS2B-NS3pro [3] is recorded as “significant inhibition”.

For `O=P(=O)c1ccc(OC2OCC(O)C(O)C2O)cc1` (stereo not drawn) [Compound 6A31], the solubility entry in [5] is on record as “NS (key: compounds soluble in aqueous buffer were indicated with “S”; insoluble compounds indicated with “NS.”)”.
